According to patent US7973219B2, “Method for producing transgenic plants resistant to weed control compounds which disrupt the porphyrin pathways of plants” (Sumitomo Chemical Company, Limited, priority 1998, dated 2011):

Legend:
[1] = tested on: tobacco introduced with the gene encoding the variant soybean PPO; test: Leaf piece chlorophyll test, tobacco with gene encoding variant soybean PPO; type: in vivo; conditions: Table 8; for Resistant level to test compound: same manner as Example 6 (0.3 ppm), treated vs untreated leaf pieces; for Total chlorophyll content treated-leaf: same manner as Example 6 (0.3 ppm, 7 days in light)
Source text: The tobacco leaves into which bchH gene was introduced and control recombinant tobacco leaves obtained in Example 5 were collected and each leaf was divided into the right and left equivalent pieces along the main vein, respectively. To one piece was applied an aqueous solution containing 0.3 ppm PPO inhibitory-type herbicidal compound of Structure 8, while, to the other piece was not applied the compound. These leaf pieces were placed on MS medium containing 0.8% agar and allowed to stand at room temperature for 7 days in light place. Then, each leaf piece was ground with pestle and mortar in 5 ml of 80% aqueous acetone solution to extract chlorophyll. The extract liquid was diluted with 80% aqueous acetone solution and the absorbance was measured at 750 nm, 663 nm and 645 nm to calculate total chlorophyll content according to the method described by Macknney G., J. Biol. Chem. (1941) 140, p 315. The results obtained from 4 clones of tobacco into which bchH gene was introduced (BCH1 to 4) and control recombinant tobacco is shown in Table 4. In the table, the resistant level to the herbicidal compound was represented by percentages of the total chlorophyll content of leaf pieces treated with herbicidal compound to that of untreated leaf pieces.
Leaf pieces of tobacco cultured sterilely were infected with the Agrobacterium strain and, according to the same manner as in Example 5, tobacco into which the gene encoding the variant soybean PPO was introduced was obtained.
The level of resistance to PPO inhibitory type herbicidal compound represented by Structure 8 was confirmed quantitatively by testing tobacco into which the gene encoding the variant soybean PPO prepared in Example 13 was introduced according to the same manner as in Example 6. The results obtained from 4 clones (GMP 1-4) of tobacco introduced with the gene encoding the variant soybean PPO and control recombinant tobacco are shown in Table 8. In the table, the resistant level to herbicidal compound is represented by percentage of the total chlorophyll content of leaf pieces treated with the herbicidal compound to that of untreated leaf pieces.

[2] = tested on: E. coli BT3/pACYCSP+pCR2.1 strain; test: Growth of E. coli BT3/pACYCSP+pCR2.1 (vector control) with herbicidal compound; type: cell-based, Escherichia coli; conditions: 18 hours culture, Table 6
Source text: According to the description of Gibson, L. C. D. et al., Proc. Natl. Acad. Sci. USA, 92; p 1941 (1995), the DNA fragment containing bchH gene prepared in Example 1 was digested with the restriction enzymes NdeI and BglII. The resultant DNA fragment was inserted between NdeI restriction site and BamHI restriction site of expression vector pET11a (manufactured by Stratagene) to obtain plasmid pETBCH (FIG. 1). This plasmid pETBCH was introduced into E. coli BL21(DE3) strain competent cells (manufactured by Stratagene) according to the manual attached to the competent cells to obtain E. coli BL21(DE3)/pETBCH strain. The strain was inoculated into 1.5 ml LB liquid culture medium (1% tryptone, 0.5% yeast extract, 0.5% NaCl) containing 100 μg/ml ampicillin in a tube (14×10 mm), and the tube was covered with aluminum foil (hereinafter referred to as dark conditions), cultured with shaking at 37° C. under light of fluorescent lamp (about 8000 lux). When the absorbance at 600 nm of the liquid culture medium became about 0.6, isopropyl β-D-thiogalactopyranoside (IPTG) was added to the liquid culture medium so that the final concentration was 0.4 mM, and the culture was continued for about additional 20 hours. […] In contrast to this, when E. coli BL21(DE3)/pETBCH strain was cultured according to the same manner (with IPTG) except that the tube was not covered with aluminum foil (hereinafter referred to as light conditions), E. coli grew and turned red as above.
The plasmid pTCHLH1 and pCR2.1 prepared in Example 7 were introduced into E. coli BT3/pACYCSP strain prepared in Example 3, respectively according to the method described in Hanahan, D. J., Mol. Biol., 166; p 557 (1983). E. coli BT3/pACYCSP+pTCHLH1 strain bearing plasmids pACYCSP and pTCHLH1, and E. coli BT3/pACYCSP+pCR2.1 strain bearing plasmids pACYCSP and pCR2.1 were obtained by culturing the above strains in YPT medium containing 100 μg/ml ampicillin, 15 μg/ml chloramphenicol and 50 μg/ml kanamycin, respectively.
These E. coli strains were inoculated into YPT medium containing 10 or 1 ppm of the PPO inhibitory-type herbicidal compound represented by Structure 8, 100 μg/ml ampicillin, 15 μg/ml chloramphenicol, 50 μg/ml kanamycin, 10 μg/ml hemin and 50 μg/ml aminolevulinic acid, cultured under dark conditions or light conditions according to the same manner as in Example 2. Then, 18 hours after initiation of culture, the absorbance of the liquid culture medium was measured at 600 nm. By taking the absorbance of the medium without the herbicidal compound as 1, the relative value of the absorbance of the medium containing the herbicidal compound was calculated.

[3] = tested on: tobacco bearing the introduced Arabidopsis thaliana PPO(A220V) gene; test: Leaf piece chlorophyll test, tobacco with Arabidopsis thaliana PPO(A220V) gene; type: in vivo; conditions: 2.0 ppm, 7 days in a light place, treated vs untreated leaf pieces, Example 37
Source text: Tobacco leaf pieces cultured sterilely were infected with the Agrobacterium strain and, according to the same manner as described in Example 5, tobacco bearing the introduced Arabidopsis thaliana PPO(A220V) gene was obtained.
Leaves of the tobacco bearing the introduced both Arabidopsis thaliana PPO(A220V) gene and gene encoding the variant tobacco chelatase subunit produced in Example 36, those bearing the introduced Arabidopsis thaliana PPO(A220V) gene produced in Example 35, and the control recombinant tobacco leaves produced in Example 5were collected, and each leaf was divided into the right and left equivalent pieces along the main vein. One of the pieces was treated with an aqueous solution containing 2.0 ppm PPO inhibitory-type herbicidal compound of Structure 8, while the other piece was not treated with the compound. These leaf pieces were placed on MS medium containing 0.8% agar and allowed to stand at room temperature for 7 days in a light place. Then, each leaf piece was ground in 5 ml of 80% aqueous acetone solution in a mortar with a pestle to extract chlorophyll. The extract was diluted 10 times with 80% aqueous acetone solution and the absorbance was measured at 750 nm, 663 nm and 645 nm to calculate the total chlorophyll content according to the method described by Macknney G., J. Biol. Chem. (1941) 140, p 315. […]

SMILES: C#CCOc1cc(N2C(=O)C3=C(CCCC3)C2=O)c(F)cc1Cl [Structure 8]
- Resistant level to test compound ([1]; clone GMP-1): 135%
- Total chlorophyll content treated-leaf ([1]; clone GMP-1): 2.55 mg/g-fresh weight
- Resistant level to test compound ([1]; clone GMP-2): 108%
- Total chlorophyll content treated-leaf ([1]; clone GMP-2): 0.96 mg/g-fresh weight
- Resistant level to test compound ([1]; clone GMP-3): 99.3%
- Total chlorophyll content treated-leaf ([1]; clone GMP-3): 1.49 mg/g-fresh weight
- Resistant level to test compound ([1]; clone GMP-4): 80.4%
- Total chlorophyll content treated-leaf ([1]; clone GMP-4): 2.34 mg/g-fresh weight
- Relative absorbance ([2]; in the dark, 1 ppm): 1.0
- Relative absorbance ([2]; in the dark, 10 ppm): 1.0
- Relative absorbance ([2]; in the light, 1 ppm): 0.08
- Relative absorbance ([2]; in the light, 10 ppm): 0.03
- resistant level [3]: 12.2%
